According to patent US10653667B2, “Drug for preventing, treating or preventing metastasis of giant cell tumor that occurs in bone or soft parts, chondrosarcoma, or osteosarcoma, local injection for arterial embolization, and artificial bone” (NIPPON CHEMIPHAR CO., LTD, priority 2013, dated 2020):
Entries after “also recorded” stand apart in the source; their conditions may differ.

Legend:
[1] = system: synovial cells derived from rheumatism patients; details: cited from earlier work
[2] = system: GCTB cultured cells (case 1, case 2; GCT-1, GCT-2); test: Suppression of cell proliferation of GCTB cultured cells (Cell Counting Kit-8, WST assay); format: cell-based, human; details: drug at various concentrations, CCK-8 24 hours after addition
Description: Tissue Int., 75:71-77), repeatedly subcultured until there were only spindle-shaped cells, which state was gradually attained from the state that there were also multinucleated giant cells observed in an early stage, and then used for the following analysis. […] Zaltoprofen was added as a solution in DMSO (dimethyl sulfoxide) prepared at a concentration 1000 times higher than the final concentration, and the solution was added in a volume of 0.1% of the volume of the medium. The same shall apply to the other drugs used in the following examples. […]

[3] = system: cultured cells of giant cell tumor of tendon sheath (GCTT); test: Suppression of cell proliferation of GCTT cultured cells (CCK-8); format: cell-based, human; details: drug at various concentrations, CCK-8 24 hours after addition
[4] = system: cultured cells of pigmented villonodular synovitis (PVNS); test: Suppression of cell proliferation of PVNS cultured cells (CCK-8); format: cell-based, human; details: for suppression of cell proliferation (absorbance at 450 nm): PVNS cells, drug at various concentrations, CCK-8 24 hours after addition
H-EMC-SS cells = test: Suppression of cell proliferation of chondrosarcoma cell line H-EMC-SS (CCK-8); format: cell-based, human; details: drug at various concentrations
Text: The H-EMC-SS cells were obtained from the Riken BioResource Center.
(§1) The H-EMC-SS cells were obtained from the Riken BioResource Center. As the SW1353 cells, those obtained from ATCC were used.

SW1353 cells [5] = test: Suppression of cell proliferation of chondrosarcoma cell line SW1353 (CCK-8); format: cell-based, human; details: drug at various concentrations
Text: as §1

SW1353 cells [6] = test: Cell migration of human chondrosarcoma cell line SW1353; format: cell-based; details: 72 hours
Description: The analysis of cell migration was performed by using a 6-well plate of TPP according to the method described in Takeuchi A, et al., Cancer Science, 104:740-749, 2013 (Low molecular weight heparin suppresses receptor for advanced glycation end products-mediated expression of malignant phenotype in human fibrosarcoma cells). Cells of the human chondrosarcoma cell line, SW1353, were cultured in the same manner as that of Example 1 until they became sub-confluent, and the cells were delaminated in a width of 1 mm using a micropipette tip (200 μl). […] Then, area of the cells migrated to the region where the cells were delaminated was measured by using Image J software (http://rsb.info.nih.gov/ij/index.html) (FIGS. 73 and 74).

SW1353 cells [7] = test: Cell invasion of SW1353 cells (Matrigel Invasion Chamber); format: cell-based, human; details: all set concentrations, concentration-dependent; 24 hours
Text: For the analysis of cell invasion, Matrigel™ Invasion Chamber (BD Bioscience, catalog number 354480), which uses Matrigel as the matrix, was used. […] FIGS. 76 and 77 show microphotographs of invaded cells fixed by immersion into a 4% paraformaldehyde solution, and stained with hematoxylin (magnification is 200 times). From the microphotographs of FIGS. 76 and 77, the patterns of the invaded cells can be understood.

Solubility in DMSO = format: physicochemical; details: limited highest test concentration (lornoxicam 80 μm, ampiroxicam 20 μm)
colon cancer = details: cited from earlier work
PVNS = details: in vitro; cited from earlier work
SW1353 cells [8] = test: Proliferation of SW1353 cells cultured beforehand with PPARγ siRNA or control siRNA; format: cell-based, human; details: 100 μM rosiglitazone; 24 hours
[9] = all set concentrations, concentration-dependent

CS(=O)(=O)Nc1ccc([N+](=O)[O-])cc1OC1CCCCC1 [NS-398]
activation of PPARγ [1]: did not activate PPARγ
apoptosis [1]: did not cause apoptosis
suppression of proliferation of the cells [1]: suppressed proliferation

COc1ccc2c(c1)c(CC(=O)OCC(=O)O)c(C)n2C(=O)c1ccc(Cl)cc1 [acemetacine, acemetacin]
suppression of cell proliferation (live cell count, absorbance at 450 nm) [2]: suppressed proliferation
suppression of cell proliferation (absorbance at 450 nm) [3]: suppressed proliferation
suppression of cell proliferation (absorbance at 450 nm) [4]: suppressed proliferation
suppression of cell proliferation (absorbance at 450 nm) (H-EMC-SS cells): suppressed proliferation
suppression of cell proliferation (absorbance at 450 nm) (SW1353 cells [5]): suppressed proliferation

CC(=O)Nc1ccc(O)cc1 [acetaminophen]
suppression of cell proliferation (live cell count, absorbance at 450 nm) [2]: suppressed in a drug concentration-dependent manner; also recorded: suppressed proliferation
suppression of cell proliferation (absorbance at 450 nm) [3]: suppressed proliferation
suppression of cell proliferation (absorbance at 450 nm) [4]: suppressed proliferation
suppression of cell proliferation (absorbance at 450 nm) (H-EMC-SS cells): suppressed proliferation
suppression of cell proliferation (absorbance at 450 nm) (SW1353 cells [5]): suppressed proliferation
suppression of cell migration of SW1353 cells (SW1353 cells [6]; [9]): suppressed the cell migration
suppression of cell invasion of SW1353 cells (SW1353 cells [7]): suppressed the cell invasion
activation of PPARγ [1]: did not cause activation of PPARγ
apoptosis [1]: did not cause
suppression of proliferation of the cells [1]: did not cause

CCOC(=O)OC(C)OC1=C(C(=O)Nc2ccccn2)N(C)S(=O)(=O)c2ccccc21 (stereo not drawn) [ampiroxicam]
suppression of cell proliferation (live cell count, absorbance at 450 nm) [2]: suppressed proliferation
suppression of cell proliferation (absorbance at 450 nm) [3]: suppressed proliferation
suppression of cell proliferation (absorbance at 450 nm) [4]: suppressed proliferation
suppression of cell proliferation (absorbance at 450 nm) (H-EMC-SS cells): suppressed proliferation
suppression of cell proliferation (absorbance at 450 nm) (SW1353 cells [5]): suppressed proliferation
solubility in DMSO (dimethyl sulfoxide) (Solubility in DMSO): low solubility

Cc1ccc(-c2cc(C(F)(F)F)nn2-c2ccc(S(N)(=O)=O)cc2)cc1 [celecoxib]
suppression of cell migration of SW1353 cells (SW1353 cells [6]; 75 μM celecoxib): higher than 80%

O=C(O)Cc1ccccc1Nc1c(Cl)cccc1Cl [diclofenac]
suppression of cell proliferation (live cell count, absorbance at 450 nm) [2]: suppressed in a drug concentration-dependent manner; also recorded: suppressed proliferation
suppression of cell proliferation (absorbance at 450 nm) [3]: suppressed proliferation
suppression of cell proliferation (absorbance at 450 nm) [4]: suppressed proliferation
suppression of cell proliferation (absorbance at 450 nm) (H-EMC-SS cells): suppressed proliferation
suppression of cell proliferation (absorbance at 450 nm) (SW1353 cells [5]): suppressed proliferation
suppression of cell migration of SW1353 cells (SW1353 cells [6]; [9]): suppressed the cell migration
suppression of cell invasion of SW1353 cells (SW1353 cells [7]): suppressed the cell invasion
activation of PPARγ [1]: activated PPARγ
apoptosis [1]: caused apoptosis
suppression of proliferation of the cells [1]: suppress proliferation
occurrence of colon cancer (colon cancer; induced by repetitive administration of 1,2-dimethylhydrazine dihydrochloride to rats): prevented occurrence of colon cancer
amount of NF-κB protein in the large intestine (colon cancer; rats): reduced amount of NF-κB protein
amount of the PPARγ protein (colon cancer; rats): increased amount of the PPARγ protein

CCc1cccc2c3c([nH]c12)C(CC)(CC(=O)O)OCC3 (stereo not drawn) [etodolac]
suppression of cell proliferation (live cell count, absorbance at 450 nm) [2]: suppressed proliferation
suppression of cell proliferation (absorbance at 450 nm) [3]: suppressed proliferation
suppression of cell proliferation (absorbance at 450 nm) [4]: suppressed proliferation
suppression of cell proliferation (absorbance at 450 nm) (H-EMC-SS cells): suppressed proliferation
suppression of cell proliferation (absorbance at 450 nm) (SW1353 cells [5]): suppressed proliferation

COc1ccc2c(c1)c(CC(=O)O)c(C)n2C(=O)c1ccc(Cl)cc1 [indomethacin]
suppression of cell proliferation (live cell count, absorbance at 450 nm) [2]: suppressed in a drug concentration-dependent manner; also recorded: suppressed proliferation
suppression of cell proliferation (absorbance at 450 nm) [3]: suppressed proliferation
suppression of cell proliferation (absorbance at 450 nm) [4]: suppressed proliferation
suppression of cell proliferation (absorbance at 450 nm) (H-EMC-SS cells): suppressed proliferation
suppression of cell proliferation (absorbance at 450 nm) (SW1353 cells [5]): suppressed proliferation
suppression of cell migration of SW1353 cells (SW1353 cells [6]; [9]): suppressed the cell migration
suppression of cell invasion of SW1353 cells (SW1353 cells [7]): suppressed the cell invasion
activation of PPARγ [1]: activated PPARγ
apoptosis [1]: caused apoptosis
suppression of proliferation of the cells [1]: suppress proliferation

CN1C(C(=O)Nc2ccccn2)=C(O)c2sc(Cl)cc2S1(=O)=O [lornoxicam]
suppression of cell proliferation (live cell count, absorbance at 450 nm) [2]: suppressed proliferation
suppression of cell proliferation (absorbance at 450 nm) [3]: suppressed proliferation
suppression of cell proliferation (absorbance at 450 nm) [4]: suppressed proliferation
suppression of cell proliferation (absorbance at 450 nm) (H-EMC-SS cells): suppressed proliferation
suppression of cell proliferation (absorbance at 450 nm) (SW1353 cells [5]): suppressed proliferation
solubility in DMSO (dimethyl sulfoxide) (Solubility in DMSO): low solubility

NC(=O)c1ncn([C@@H]2O[C@H](CO)[C@@H](O)[C@H]2O)c1O [mizoribine]
inhibition of proliferation of PVNS (PVNS): slightly inhibited proliferation

COc1ccc(-c2noc(CC(=O)O)c2-c2ccc(OC)cc2)cc1 [mofezolac]
suppression of cell proliferation (live cell count, absorbance at 450 nm) [2]: suppressed proliferation
suppression of cell proliferation (absorbance at 450 nm) [3]: suppressed proliferation
suppression of cell proliferation (absorbance at 450 nm) [4]: suppressed proliferation
suppression of cell proliferation (absorbance at 450 nm) (H-EMC-SS cells): suppressed proliferation
suppression of cell proliferation (absorbance at 450 nm) (SW1353 cells [5]): suppressed proliferation

COc1ccc2cc([C@H](C)C(=O)O)ccc2c1 [naproxen]
suppression of cell proliferation (live cell count, absorbance at 450 nm) [2]: suppressed proliferation
suppression of cell proliferation (absorbance at 450 nm) [3]: suppressed proliferation
suppression of cell proliferation (absorbance at 450 nm) [4]: suppressed proliferation
suppression of cell proliferation (absorbance at 450 nm) (H-EMC-SS cells): suppressed proliferation
suppression of cell proliferation (absorbance at 450 nm) (SW1353 cells [5]): suppressed proliferation

O=C(O)CCc1nc(-c2ccccc2)c(-c2ccccc2)o1 [oxaprozin]
suppression of cell proliferation (live cell count, absorbance at 450 nm) [2]: suppressed proliferation
suppression of cell proliferation (absorbance at 450 nm) [3]: suppressed proliferation
suppression of cell proliferation (absorbance at 450 nm) [4]: suppressed proliferation
suppression of the proliferation at the highest measured concentration ([4]; oxaprozin 200 μm, cells of pigmented villonodular synovitis as printed, 400 μm or higher could not be measured): only slight suppression
suppression of cell proliferation (absorbance at 450 nm) (H-EMC-SS cells): suppressed proliferation
suppression of cell proliferation (absorbance at 450 nm) (SW1353 cells [5]): suppressed proliferation
activation of PPARγ [1]: activated PPARγ
apoptosis [1]: caused apoptosis
suppression of proliferation of the cells [1]: suppress proliferation

CN(CCOc1ccc(CC2SC(=O)NC2=O)cc1)c1ccccn1 (stereo not drawn) [rosiglitazone]
suppression of proliferation of SW1353 cells (SW1353 cells [8]): about 61%

Cc1c(C)c2c(c(C)c1O)CCC(C)(COc1ccc(CC3SC(=O)NC3=O)cc1)O2 (stereo not drawn) [troglitazone]
suppression of cell migration of SW1353 cells (SW1353 cells [6]; 100 μM troglitazone): about 65%
